Experimental data reported in patent US9212168B2 (priority 2011, dated 2015).
pEC50: −log10 of the molar value.

What follows are molecules tested on HCV genotype 1a replicon (assay: HCV genotype 1a replicon assay (NS3 protease activity readout)). Settings: HCV genotype 1a replicon.
Format: cell-based, hepatitis C virus
Method in brief: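 Genotype 1a subgenomic replicon cells (APC89, Huh7.5) were treated with compound dose-responses in G418-free medium, 0.5% DMSO final, for 48 or 72 hours at 37° C. Lysate NS3/4a protease activity measured with 15 μM FRET substrate, 20 min at 37° C (ex 340/em 509 nm); EC50 by 4-parameter fit.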

| SMILES | Genotype 1a |
| --- | --- |
| COC(=O)N[C@H](C(=O)N1C[C@@H](C)C[C@H]1c1nc(-c2ccc(-c3ccc(C(=O)Nc4ccc(N5CCN(C(=O)C6CC6)C[C@H]5C)nc4)cc3OC(F)(F)F)cc2)c(Cl)[nH]1)C(C)C [Example 4-31] | C (C represents pEC50 between and 9 and about 10, (EC50 between 1 nM and 0.1 nM)) |
| COC(=O)N[C@@H](C(=O)N1C[C@@H](C)C[C@H]1c1nc(-c2ccc(-c3cc(Cl)c(NC(=O)c4ccc(N5CCN(C(=O)C(C)(C)C)C[C@H]5C)nc4)cc3C(F)(F)F)cc2)c[nH]1)C1CCCCC1 [Example 19-3] | A (A represents a pEC50 value between 6 and 8 (EC50 between 1 μM and 10 nM)) |
| COC(=O)N[C@H](C(=O)N1C[C@@H](O)C[C@H]1c1nc(-c2ccc(-c3cc(F)c(NC(=O)c4ccc(N5CCN(C(=O)C(C)(C)C)C[C@H]5C)nc4)cc3OC(F)(F)F)cc2)c[nH]1)C(C)C [Example 26-6] | C (C represents pEC50 between and 9 and about 10, (EC50 between 1 nM and 0.1 nM)) |
| COC[C@H]1C[C@@H](c2nc(-c3ccc(-c4ccc(C(=O)Nc5ccc(N6CCN(C(=O)C(C)(C)C)C[C@H]6C)nc5)c(Cl)c4OC(F)(F)F)cc3)c[nH]2)N(C(=O)[C@@H](NC(=O)OC)C2CCOCC2)C1 [Example 25-6] | C (C represents pEC50 between and 9 and about 10, (EC50 between 1 nM and 0.1 nM)) |
| COC(=O)NC(C(=O)N1CC(F)CC1c1nc(-c2ccc(-c3cc(Cl)c(NC(=O)c4ccc(N5CCN(C(=O)C(C)(C)CO)CC5C)nc4)cc3OC(F)(F)F)cc2)c[nH]1)C(C)C (centres unmarked) [Example 29-3] | C (C represents pEC50 between and 9 and about 10, (EC50 between 1 nM and 0.1 nM)) |
| COC(=O)N[C@H](C(=O)N1C[C@@H](C)C[C@H]1c1nc(-c2ccc(-c3ccc(C(=O)Nc4ccc(N5C[C@H](C)N(C(=O)C(C)(C)NC(=O)C6CC6)C[C@H]5C)nc4)cc3OC(F)(F)F)cc2)c[nH]1)C(C)C [Example 4-39] | C (C represents pEC50 between and 9 and about 10, (EC50 between 1 nM and 0.1 nM)) |

Same assay, conditions: Hepatitis C virus, read-out: Genotype 1a, HCV genotype 1a replicon

| SMILES | pEC50 |
| --- | --- |
| COCC1(C(=O)N2CCN(c3ccc(C(=O)Nc4cc(OC(F)(F)F)c(-c5ccc(-c6c[nH]c([C@@H]7C[C@H](C)CN7C(=O)[C@@H](NC(=O)OC)C(C)C)n6)cc5)cc4Cl)cn3)[C@H](C)C2)CCC1 [Example 12-45] | > 10.00 |
| COC(=O)N[C@H](C(=O)N1C[C@@H](C)C[C@H]1c1nc(-c2ccc(-c3cc(Cl)c(NC(=O)c4ccc(N5CCN(C(=O)C6CNC6)C[C@H]5C)nc4)cc3OC(F)(F)F)cc2)c[nH]1)C(C)C [Example 12-51] | 9.00 to 10.00 |
| COC(=O)N[C@H](C(=O)N1C[C@@H]([S+](C)[O-])C[C@H]1c1nc(-c2ccc(-c3ccc(C(=O)Nc4ccc(N5CCN(C(=O)C6CC6(C)C)C[C@H]5C)nc4)cc3OC(F)(F)F)cc2)c[nH]1)C(C)C (some centres unmarked) [Example 6-18] | 9.00 to 10.00 |
| COC(=O)N[C@H](C(=O)N1C[C@@H](N(C)C)C[C@H]1c1nc(-c2ccc(-c3ccc(C(=O)Nc4ccc(N5CCN(C(=O)[C@]6(C)CCCN6C(=O)[C@@H](NC(=O)OC)C(C)C)C[C@H]5C)nc4)cc3)cc2)c[nH]1)C(C)C [Example 6-3] | 9.00 to 10.00 |
| COC(=O)N[C@H](C(=O)N1C[C@@H](N(C)C(C)C)C[C@H]1c1nc(-c2ccc(-c3cc(Cl)c(NC(=O)c4ccc(N5CCN(C(=O)C(C)(C)C)C[C@H]5C)nc4)cc3OC(F)(F)F)cc2)c[nH]1)C(C)C [Example 15-7] | > 10.00 |
| COC(=O)N[C@H](C(=O)N1C[C@@H](N)C[C@H]1c1nc(-c2ccc(-c3ccc(C(=O)Nc4ccc(N5CCN(C(=O)C6CC6(C)C)C[C@H]5C)nc4)cc3)cc2)c[nH]1)C(C)C (some centres unmarked) [Example 6-4] | 6.00 to 8.00 |
| CNC(=O)N1C[C@@H](C)N(c2ccc(C(=O)Nc3cc(OC(F)(F)F)c(-c4ccc(-c5c[nH]c([C@@H]6C[C@H](C)CN6C(=O)C(C)N(C)C(=O)OC)n5)cc4)cc3Cl)cn2)C[C@@H]1C (some centres unmarked) [Example 7-14] | > 10.00 |
| COC(=O)N[C@H](C(=O)N1C[C@@H](C)C[C@H]1c1nc(-c2ccc(-c3cc(Cl)c(NC(=O)c4ccc(N5CCN(C(=O)C(C)(C)C(=O)O)C[C@H]5C)nc4)cc3OC(F)(F)F)cc2)c[nH]1)C(C)C [Example 12-58] | 9.00 to 10.00 |
